From patent publication US11707539B2, “FAP-targeted radiopharmaceuticals and imaging agents, and uses related thereto” (Trustees of Tufts College, priority 2020, dated 2023)
Where a SMILES comes first, the peptide text is derived from it.

Legend:
[1] = test system: HEK-mFAP tumor xenografts; assay: Efficacy and survival study, single injection; type: in vivo, mouse; conditions: single IV injection
Method: The aim of the study was to assess the therapeutic efficacy of a single injection of ^177Lu-PNT2004 ([^177Lu]-6522) by evaluating tumor growth delay and median survival. ^177Lu-PNT2004 ([^177Lu]-6522) was provided in 3 concentrations, ready for injection (80 μL/mouse), and the injected dose was determined using a well counter (Capintec calibration) #430x10.
A total of 30 HEK-mFAP tumor-bearing mice were used for the study.
Mouse health checks were performed throughout the study on a weekly basis including body weight measurements. Tumor growth was monitored weekly with caliper measurements (tumor volume=length×width^2×0.5). Study endpoints include tumor size >2 cm in any dimension, tumor ulceration, mouse is moribund, and >15% body weight lost from the last measurement. Mice were housed 5 to a cage with ad libitum access to food and water in 20° C. ambient temperature, 40%-50% humidity, and 12-hour light/12-hour dark cycle.
The mice were randomized into 5 groups, n=6 mice per group. The treatment compositions (1 through 5 above) were injected IV through the tail vein using a catheter (mounted with a 30 Ga needle). Injected doses were determined using a well counter (Capintec calibration). Tumor growth was monitored weekly with caliper measurements, and the mice were followed for survival.

[2] = test system: HEK-mFAP tumor xenografts; assay: In vivo biodistribution study of [177Lu]-6522, gamma counting; conditions: for Mean (% ID/g): i.v.
[3] = Radiochemical purity by HPLC on storage at room temperature; type: physicochemical; conditions: three days at room temperature
Method: The labeling efficiency was analyzed by instant thin layer chromatography (iTLC) and was typically >98%. For iTLC analysis, 1 μL of diluted labeling solution was applied to a strip of iTLC-SA chromatography paper (Agilent P/N A120B12, 114×2.5 mm) and developed in 0.1M citrate buffer (8 cm solvent migration) to assess free ^177Lu (Rf >0.5) and [^177Lu]-6555 (Rf ˜0). The iTLC strips were analyzed using an Eckert & Ziegler AR-2000 Radio-TLC Imaging Scanner. The radiochemical purity was analyzed by high performance chromatography (HPLC) and was typically >90%. Briefly, the product was analyzed using a Phenomenex Luna 3.0 μm C18(2), 100A, 150 mm×4.6 mm column. Eluent A: 50 mM ammonium acetate in water, eluent B: acetonitrile. Gradient: 2% B from 0-5 min; 2% to 26% B from 5-20 min; 26% to 98% B from 20-25 min; 98% to 2% B from 25-26 min; 2% B from 26-30 min. Flow rate: 1.0 mL/min, Radio-HPLC detector: NaI (Eckert & Zeigler FC-1000), UV: 215 nm. The radiochemical purity remained >90% for three days at room temperature.
The above depicted radiopharmaceutical [^177Lu]-6952 can be prepared as described in Example 19 using the radiochemical precursor 6952 (Example 14 above). The labeling efficiency was analyzed by instant thin layer chromatography (iTLC) and was typically >98%. […] The iTLC strips were analyzed using an Eckert & Ziegler AR-2000 Radio-TLC Imaging Scanner. The radiochemical purity was analyzed by high performance chromatography (HPLC) and was typically >90%. Briefly, the product was analyzed using a Phenomenex Luna 3.0 m C18(2), 100A, 150 mm×4.6 mm column. […]
The labeling efficiency was analyzed by instant thin layer chromatography (iTLC) and was typically >95%. […] The iTLC strips were analyzed using an Eckert & Ziegler AR-2000 Radio-TLC Imaging Scanner. The radiochemical purity was analyzed by high performance chromatography (HPLC) and was typically >95%. Briefly, the product was analyzed using a Phenomenex Luna 3.0 m C18(2), 100Å, 150 mm×4.6 mm column. […]
The labeling efficiency was analyzed by instant thin layer chromatography (iTLC) and was typically >95%. […]

CC(C)[C@H](NC(=O)CNC(=O)CNC(=O)CN1CCN2CCN3CCN(CC1)CC(=O)[O][Lu]([O]C(=O)C2)[O]C(=O)C3)C(=O)N[C@H](C)C(=O)N1CCC[C@H]1B(O)O [[^177Lu]-6522] (HELM PEPTIDE1{[O=C1CN2CCN3CCN(CC(=O)[*:2])CCN(CC2)CC(=O)[O][Lu]([O]1)[O]C(=O)C3].G.G.V.[dA].[OB(O)[C@@H]1CCCN1[*:1]]}$$$$V2.0)
survival benefit ([1]; 15 MBq): did not translate in a survival benefit | tumor growth delay ([1]; 15 MBq): tumor growth delay was observed | survival benefit ([1]; 30 MBq): did not translate in a survival benefit | tumor growth delay ([1]; 30 MBq): tumor growth delay was observed | survival benefit compared to the vehicle or precursor group ([1]; 60 MBq): statically significant survival benefit | Mean (% ID/g) ([2]; Blood, 4 h p.i.): 0.3063 % ID/g | Mean (% ID/g) ([2]; Blood, 24 h p.i.): 0.0085 % ID/g | Mean (% ID/g) ([2]; Blood, 48 h p.i.): 0.0029 % ID/g | Mean (% ID/g) ([2]; Blood, 168 h p.i.): 0.0015 % ID/g | Mean (% ID/g) ([2]; Bone, 4 h p.i.): 1.8037 % ID/g | Mean (% ID/g) ([2]; Bone, 24 h p.i.): 0.2658 % ID/g | Mean (% ID/g) ([2]; Bone, 48 h p.i.): 0.4106 % ID/g | Mean (% ID/g) ([2]; Bone, 168 h p.i.): 0.3959 % ID/g | Mean (% ID/g) ([2]; Brain, 4 h p.i.): 0.0281 % ID/g | Mean (% ID/g) ([2]; Brain, 24 h p.i.): 0.0036 % ID/g | Mean (% ID/g) ([2]; Brain, 48 h p.i.): 0.0033 % ID/g | Mean (% ID/g) ([2]; Brain, 168 h p.i.): 0.0020 % ID/g | Mean (% ID/g) ([2]; Heart, 4 h p.i.): 0.1528 % ID/g | Mean (% ID/g) ([2]; Heart, 24 h p.i.): 0.0332 % ID/g | Mean (% ID/g) ([2]; Heart, 48 h p.i.): 0.0311 % ID/g | Mean (% ID/g) ([2]; Heart, 168 h p.i.): 0.0256 % ID/g | Mean (% ID/g) ([2]; Kidneys, 4 h p.i.): 2.3525 % ID/g | Mean (% ID/g) ([2]; Kidneys, 4 h p.i., listed as Compound #2): 2.35±0.51 % ID/g | Mean (% ID/g) ([2]; Kidneys, 24 h p.i.): 0.9585 % ID/g | Mean (% ID/g) ([2]; Kidneys, 48 h p.i.): 0.5318 % ID/g | Mean (% ID/g) ([2]; Kidneys, 168 h (day 7) p.i.): 0.1670 % ID/g | Mean (% ID/g) ([2]; Kidneys, 168 h (day 7) p.i., listed as Compound #2): 0.17±0.02 % ID/g | Mean (% ID/g) ([2]; Liver, 4 h p.i.): 0.3774 % ID/g | Mean (% ID/g) ([2]; Liver, 24 h p.i.): 0.1585 % ID/g | Mean (% ID/g) ([2]; Liver, 48 h p.i.): 0.1237 % ID/g | Mean (% ID/g) ([2]; Liver, 168 h p.i.): 0.0725 % ID/g | Mean (% ID/g) ([2]; Lung, 4 h p.i.): 0.3331 % ID/g | Mean (% ID/g) ([2]; Lung, 24 h p.i.): 0.0306 % ID/g | Mean (% ID/g) ([2]; Lung, 48 h p.i.): 0.0312 % ID/g | Mean (% ID/g) ([2]; Lung, 168 h p.i.): 0.0257 % ID/g | Mean (% ID/g) ([2]; Muscle, 4 h p.i.): 0.4649 % ID/g | Mean (% ID/g) ([2]; Muscle, 24 h p.i.): 0.0315 % ID/g | Mean (% ID/g) ([2]; Muscle, 48 h p.i.): 0.0518 % ID/g | Mean (% ID/g) ([2]; Muscle, 168 h p.i.): 0.0604 % ID/g | Mean (% ID/g) ([2]; Pancreas, 4 h p.i.): 0.2167 % ID/g | Mean (% ID/g) ([2]; Pancreas, 24 h p.i.): 0.0347 % ID/g | Mean (% ID/g) ([2]; Pancreas, 48 h p.i.): 0.0275 % ID/g | Mean (% ID/g) ([2]; Pancreas, 168 h p.i.): 0.0197 % ID/g | Mean (% ID/g) ([2]; Skin, 4 h p.i.): 0.9769 % ID/g | Mean (% ID/g) ([2]; Skin, 24 h p.i.): 0.1158 % ID/g | Mean (% ID/g) ([2]; Skin, 48 h p.i.): 0.0906 % ID/g | Mean (% ID/g) ([2]; Skin, 168 h p.i.): 0.0837 % ID/g | Mean (% ID/g) ([2]; Small intestine, 4 h p.i.): 0.2091 % ID/g | Mean (% ID/g) ([2]; Small intestine, 24 h p.i.): 0.0580 % ID/g | Mean (% ID/g) ([2]; Small intestine, 48 h p.i.): 0.0499 % ID/g | Mean (% ID/g) ([2]; Small intestine, 168 h p.i.): 0.0277 % ID/g | Mean (% ID/g) ([2]; Spleen, 4 h p.i.): 0.2587 % ID/g | Mean (% ID/g) ([2]; Spleen, 24 h p.i.): 0.1418 % ID/g | Mean (% ID/g) ([2]; Spleen, 48 h p.i.): 0.1340 % ID/g | Mean (% ID/g) ([2]; Spleen, 168 h p.i.): 0.1437 % ID/g | Mean (% ID/g) ([2]; Stomach, 4 h p.i.): 0.1706 % ID/g | Mean (% ID/g) ([2]; Stomach, 24 h p.i.): 0.0528 % ID/g | Mean (% ID/g) ([2]; Stomach, 48 h p.i.): 0.0331 % ID/g | Mean (% ID/g) ([2]; Stomach, 168 h p.i.): 0.0210 % ID/g | Mean (% ID/g) ([2]; Tumor, 4 h p.i.): 33.0435 % ID/g | Mean (% ID/g) ([2]; Tumor, 4 h p.i., listed as Compound #2): 33.04±5.29 % ID/g | Mean (% ID/g) ([2]; Tumor, 24 h p.i.): 12.9944 % ID/g | Mean (% ID/g) ([2]; Tumor, 48 h p.i.): 7.6749 % ID/g | Mean (% ID/g) ([2]; Tumor, 168 h p.i.): 3.9910 % ID/g | localization in tumor and normal tissue uptake ([2]; up to 168 h p.i.): high localization in tumor xenografts and low normal tissue uptake

C[C@@H](NC(=O)c1ccc(CNC(=O)CN2CCN3CCN4CCN(CC2)CC(=O)[O][Lu]([O]C(=O)C3)[O]C(=O)C4)cc1)C(=O)N1CCC[C@H]1B(O)O [[^177Lu]-6555]
radiochemical purity remained [3]: > 90%
